Experimental data taken from BigSolDB 2.1.

CCCCc1oc2ccc(NS(C)(=O)=O)cc2c1C(=O)c1ccc(OCCCN(CCCC)CCCC)cc1.Cl
solubility (mole fraction)
Conditions	in ethanol	in isopropanol	in methanol	in n-butanol	in n-propanol	in water
298.15 K	0.00418	0.000681	0.0556	0.00177	0.00275	2.71e-05
303.15 K	0.00461	0.000838	0.0592	0.00209	0.00353	2.73e-05
308.15 K	0.00535	0.00106	0.061	0.00261	0.00433	3.09e-05
313.15 K	0.00818	0.00119	0.077	0.00352	0.00563	3.57e-05
318.15 K	0.0159	0.00185	0.0919	0.00509	0.00892	4.49e-05
323.15 K	0.0362	0.00293	0.119	0.00805	0.0159	6.11e-05
